From patent publication US8633243B2, “Forms of CDDO methyl ester” (priority 2007, dated 2014) come the findings set out here.

The nature of data set [1]: Stress experiments (physical stability under temperature, humidity, grinding; XRPD after stress). The data set is classed as physicochemical. Particulars: for KF Result after stress: Karl Fischer water; for weight loss under stress: 3 days. How it is done:
A solid sample was placed into a stainless steel milling rotor with a small metal ball. […] The sample was then ground at 30 Hz on a Retesh type MM220 mixermill for approximately 20 minutes. The resulting solids were isolated and analyzed.
A solid sample was placed into a stainless steel grinding jar with a grinding rod. The sample was then ground at 15 Hz on a SPEX Certiprep model 6750 cryomill for a set amount of time. The grinding jar was submerged in a bath of liquid nitrogen during the experiment. The solids were isolated and analyzed.
Solids were stressed under different temperature and/or relative humidity (RH) environments for a measured time period. Specific RH values were achieved by placing the samples inside sealed chambers containing saturated salt solutions or inside ESPEC temperature and humidity cabinets. The salt solutions were selected and prepared following an ASTM standard procedure. Samples were analyzed by XRPD immediately after removal from the stress environment. […]

Data set [2] is described as follows: Hygroscopicity (dynamic vapor sorption/desorption). In kind it is physicochemical. How it is done: Moisture sorption/desorption data were collected on a VTI SGA-100 Vapor Sorption Analyzer. Sorption and desorption data were collected over a range of 5% to 95% relative humidity (RH) at 10% RH intervals under a nitrogen purge. Samples were not dried prior to analysis. Equilibrium criteria used for analysis were less than 0.010% weight change in 5 minutes, with a maximum equilibration time of 3 hours if the weight criterion was not met. Data were not corrected for the initial moisture content of the samples. Sodium chloride and polyvinypyrrolidine were used as calibration standards.

The conditions of data set [3]: cynomolgus monkey, in vivo, po, 4.1 mg/kg.
A short description of data set [4]: Phases 2 and 3: single oral administration of CDDO-methyl ester capsule formulations, concentrations by HPLC-MS/MS. In kind it is in vivo, Cynomolgus monkeys, Macaca fascicularis. Conditions: phases 2 and 3, PO capsule 10 mg/kg; compared with the micronized and nanocrystalline Form A formulations. How it is done: An aqueous suspension of nanocrystalline CDDO-Me was produced, starting from a sample of micronized Form A material. A Retsch® Planatory Ball Mill model PM 400, containing zirconia balls of 2 mm average size, was charged with 25 gm of micronized CDDO-Me (average particle size distribution of 6.1 uM), 5 gm of docusate sodium, 1 gm of Tween 80, and 68.3 gm of water. Grinding was initiated at approximately 400 RPM and was continued for 2 hours. A particle size distribution (PSD) determination using a laser light granulometer indicated an average PSD of 0.37 μM was obtained. To this thick suspension were added 1 gm of microcrystalline cellulose and 0.2 gm of […] gum, with brief mixing, and the suspension was stored refrigerated. […] The table below presents the quantitative composition of both formulations. […] The quantitative composition of each formulation appears below. […] Serial blood samples (approximately 1 mL) were removed from the femoral vein or artery of each animal and transferred into tubes containing K2-EDTA at each of the following time points (actual times were recorded): All samples were thoroughly mixed following collection and placed on wet ice, prior to being refrigerated at approximately 4° C. CDDO-methyl ester concentrations in blood were analysed by HPLC-MS/MS.

[5] abbreviates: 25° C./75% RH, 28 d, micronized.
Where [6] appears, read: 40° C./48% RH, 28 d, micronized.
Where [7] appears, read: 60° C./23% RH, 28 d, micronized.

Marks after values point to notes of the source that are not given here.

For the molecule `COC(=O)[C@]12CCC(C)(C)C[C@H]1[C@H]1C(=O)C=C3[C@@]4(C)C=C(C#N)C(=O)C(C)(C)[C@@H]4CC[C@@]3(C)[C@]1(C)CC2` [FORM B PRODUCED BY ISOLATION FROM ETHYL ACETATE AND ETHANOL ], the “XRPD RESULT after stress” value in data set [1] (setting [5]) is recorded as “Form B”; in data set [1] (setting [6]), “Form B”; in data set [1] (setting [7]), around 50% Form A +; in data set [1] (80° C./P2O5, 28 d, micronized), 100% Form A. In addition, the KF Result after stress in data set [1] (setting [5]) worked out at 0.58%; in data set [1] (setting [6]), 0.39%; in data set [1] (setting [7]) it was 0.02%; in data set [1] (80° C./P2O5, 28 d, micronized), 0.37%. In data set [1] (28 days of storage, Form A seen at 60° C. and above), the “form after stress testing (summary of Table 15)” value is “formation of Form A”.

For the molecule `COC(=O)[C@]12CCC(C)(C)C[C@H]1[C@H]1C(=O)C=C3[C@@]4(C)C=C(C#N)C(=O)C(C)(C)[C@@H]4CC[C@@]3(C)[C@]1(C)CC2` [FORM B PRODUCED VIA EXAMPLE 11 PROCEDURE], the “XRPD RESULT after stress” value in data set [1] (25° C./75% RH, 14 d, micronized) is recorded as “Form B”; in data set [1] (setting [5]) it was “Form B”; in data set [1] (setting [6]), “Form B”; in data set [1] (setting [7]) it was “Form B”; in data set [1] (80° C./P2O5, 14 d, micronized) it was “Form B”; in data set [1] (80° C./P2O5, 28 d, micronized), “Form B”. In addition, the KF Result after stress is 0.77% in data set [1] (setting [5]); 0.00^b in data set [1] (setting [6]); 0.04% in data set [1] (setting [7]); 1.1% in data set [1] (80° C./P2O5, 28 d, micronized).

For the molecule `COC(=O)C12CCC(C)(C)CC1C1C(=O)C=C3C4(C)C=C(C#N)C(=O)C(C)(C)C4CCC3(C)C1(C)CC2` (stereo not shown) [Form A, methyl 2-cyano-3,12-dioxoleana-1,9(11)-dien-28-oate], the “weight loss under stress” value in data set [1] (25° C./60% RH) is given as 3 days: 1.5% loss; in data set [1] (40° C./75% RH), 3 days: 1.4% loss. The “XRPD RESULT after stress” value in data set [1] (25° C./60% RH, 7 days) is recorded as “remained Form A”; in data set [1] (40° C./75% RH, 7 days), “remained Form A”; in data set [1] (20 min grind, dry (ball mill)) it was “remained Form A”; in data set [1] (20 min wet grind, water (ball mill)), “remained Form A”. Besides, the hygroscopicity result in data set [2] is recorded as “not hygroscopic”. Further, in data set [2] (5% to 95% RH sorption/desorption), the “MB / DVS weight change” value is “Negligible weight change throughout experiment”. In data set [2] (material after DVS experiment), the “Post MB XRPD” value is listed as “Form A”. The “AUC, Mean” value in data set [3] is 0.0404 µg·h/mL. Further, the “AUC, Median” value in data set [3] is 0.0374 µg·h/mL. Moreover, the “AUC, Range (min-max)” value in data set [3] lay within 0.021 to 0.0604 µg·h/mL.

`COC(=O)C12CCC(C)(C)CC1C1C(=O)C=C3C4(C)C=C(C#N)C(=O)C(C)(C)C4CCC3(C)C1(C)CC2` (stereo not shown) [Form B, methyl 2-cyano-3,12-dioxoleana-1,9(11)-dien-28-oate]: in data set [4], the “bioavailability, comparison of formulations” value is given as “significantly better bioavailability”. The “XRPD RESULT after stress” value in data set [1] (22° C./97% RH, 7 days) is on record as “remained Form B”. In addition, in data set [1] (40° C./75% RH, 8 days), the “XRPD RESULT after stress” value is reported as “remained Form B”. The “XRPD RESULT after stress” value in data set [1] (80° C./0% RH, ~24 hours) is recorded as “remained Form B”. For the same molecule, the “XRPD RESULT after stress” value in data set [1] (195° C., 5 minutes, ambient RH (74% RH)) is “remained Form B”. For the same molecule, the “XRPD RESULT after stress” value in data set [1] (200° C., 60 minutes, ambient RH (74% RH), min = minor) was “Form A plus minor Form B”. Also, in data set [1] (cryogrinding 1 hour), the form after cryogrinding result is “stable and does not change Form”. Besides, in data set [2], the hygroscopicity result was “not hygroscopic”. For the same molecule, in data set [3], the “% Form B over Form A (AUC), Mean” value is given as 439%; the “% Form B over Form A (AUC), Median” value was 523%; the “% Form B over Form A (AUC), Range (min-max)” value is on record as 262-723%; the “AUC, Mean” value was 0.1772 µg·h/mL. In addition, in data set [3], the “AUC, Median” value was determined as 0.175 µg·h/mL; the “AUC, Range (min-max)” value fell in the range of 0.158 to 0.228 µg·h/mL; the “median exposure greater than the equivalent dose of Form A” value was “approximately 520%”.
